In PubChem BioAssay AID1259407 (Chemical Carcinogenesis Research Information System (CCRIS), 2018) one finds mutagenic call data, which are given here for ten compounds.

Calls of active or inactive are those of the source. How the calls were made is not given here.

In the data set the test system is CCRIS mutagenicity, Ames/micronucleus/aberration tests. The data set can be described thus: CCRIS mutagenicity studies.
Where [1] appears, read: Test System: AMES SALMONELLA TYPHIMURIUM, Strain/Indicator: TA98, Metabolic Activation: NONE, Method: STANDARD PLATE.
[2] abbreviates: Test System: AMES SALMONELLA TYPHIMURIUM, Strain/Indicator: TA100, Metabolic Activation: NONE, Method: STANDARD PLATE.
Where [3] appears, read: Test System: AMES SALMONELLA TYPHIMURIUM, Strain/Indicator: TA98, Metabolic Activation: RAT, LIVER, S-9, AROCLOR 1254, Method: STANDARD PLATE.
[4] abbreviates: Test System: AMES SALMONELLA TYPHIMURIUM, Strain/Indicator: TA100, Metabolic Activation: RAT, LIVER, S-9, AROCLOR 1254, Method: STANDARD PLATE.
Where [5] appears, read: Test System: AMES SALMONELLA TYPHIMURIUM, Strain/Indicator: TA1535, Metabolic Activation: NONE, Method: STANDARD PLATE.

For the compound `Cc1ccc2c(c1)c(=NC(=O)CCCCl)sn2C(=O)CCCCl`, for the setting “Test System: AMES SALMONELLA TYPHIMURIUM, Strain/Indicator: TA100, Metabolic Activation: S-9, Method: STANDARD PLATE”, the mutagenic call is “inactive; negative”.
With `CO[C@]1(CC[C@@H](C)CO[C@@H]2O[C@H](CO)[C@@H](O)[C@H](O)[C@H]2O)O[C@H]2C[C@H]3[C@@H]4CC=C5C[C@@H](O[C@@H]6O[C@H](CO)[C@@H](O)[C@H](O[C@@H]7O[C@H](CO)[C@@H](O)[C@H](O)[C@H]7O)C6O[C@@H]6O[C@@H](C)[C@H](O)[C@@H](O)[C@H]6O)CC[C@]5(C)[C@H]4CC[C@]3(C)[C@H]2[C@@H]1C` (some centres undefined), the mutagenic call was “inactive; negative” under setting [1]; “inactive; negative” (Test System: AMES SALMONELLA TYPHIMURIUM, Strain/Indicator: TA98, Metabolic Activation: RAT, LIVER, S-9, PHENOBARBITAL, Method: STANDARD PLATE); “inactive; negative” under setting [2]; “inactive; negative” (Test System: AMES SALMONELLA TYPHIMURIUM, Strain/Indicator: TA100, Metabolic Activation: RAT, LIVER, S-9, PHENOBARBITAL, Method: STANDARD PLATE).
For the compound `CCN(C(C)=O)c1ccc2c(c1)Cc1ccccc1-2`, the mutagenic call under setting [3] is “active; positive”.
For `Cl/C=C(\Cl)C(Cl)Cl`, the mutagenic call is, setting by setting: under setting [1], “active; positive”; under setting [2], “active; positive”; under setting [4], “active; positive”; under setting [5], “active; positive”.
Regarding `O=[N+]([O-])c1ccc2c3c(ccc([N+](=O)[O-])c13)-c1ccccc1-2`, the mutagenic call (Test System: AMES SALMONELLA TYPHIMURIUM, Strain/Indicator: TA97, Metabolic Activation: NONE) was “active; positive”; the mutagenic call (Test System: AMES SALMONELLA TYPHIMURIUM, Strain/Indicator: TA98(1,8-DNP6), Metabolic Activation: NONE) is “active; positive”; the mutagenic call (Test System: AMES SALMONELLA TYPHIMURIUM, Strain/Indicator: TA98(NR), Metabolic Activation: NONE) was “active; positive”; the mutagenic call (Test System: AMES SALMONELLA TYPHIMURIUM, Strain/Indicator: TA98, Metabolic Activation: NONE) is “active; positive”; the mutagenic call (Test System: AMES SALMONELLA TYPHIMURIUM, Strain/Indicator: TA100, Metabolic Activation: NONE) was “active; positive”; the mutagenic call (Test System: AMES SALMONELLA TYPHIMURIUM, Strain/Indicator: TA1535, Metabolic Activation: NONE) is “inactive; negative”. Moreover, the mutagenic call runs as follows: (Test System: AMES SALMONELLA TYPHIMURIUM, Strain/Indicator: TA1537, Metabolic Activation: NONE) “active; positive”; (Test System: AMES SALMONELLA TYPHIMURIUM, Strain/Indicator: TA1538, Metabolic Activation: NONE) “active; positive”; (Test System: AMES SALMONELLA TYPHIMURIUM, Strain/Indicator: TA1978, Metabolic Activation: NONE) “inactive; negative”.
As for `O=[N+]([O-])c1cc2[nH]c3ccc4ccccc4c3c2c2cccc(O)c12`, the mutagenic call runs as follows: under setting [1], “active; positive”; (Test System: AMES SALMONELLA TYPHIMURIUM, Strain/Indicator: TA98, Metabolic Activation: RAT, LIVER, S-9, 3-METHYLCHOLANTHRENE, Method: STANDARD PLATE) “active; positive”; under setting [2], “active; positive”; (Test System: AMES SALMONELLA TYPHIMURIUM, Strain/Indicator: TA100, Metabolic Activation: RAT, LIVER, S-9, 3-METHYLCHOLANTHRENE, Method: STANDARD PLATE) “active; positive”.
Regarding `CC12OOC1(C)c1ccc3cccnc3c1O2` (centres undefined), for the setting “Test System: AMES SALMONELLA TYPHIMURIUM, Strain/Indicator: TA100, Metabolic Activation: NONE, Method: PREINCUBATION”, the mutagenic call was “inactive; negative”.
As to `Cc1ncc(CNC(=O)N(CCCl)N=O)c(N)n1`, the mutagenic call is “active; positive” under setting [1]; “active; positive” under setting [2]; “active; positive” (Test System: E. COLI, Strain/Indicator: WP2 (HCR), Metabolic Activation: NONE, Method: STANDARD PLATE).
On to `c1ccc2c(c1)ccc1cc3ccc4ccncc4c3cc12`, for which the mutagenic call under setting [1] is “inactive; negative”; the mutagenic call (Test System: AMES SALMONELLA TYPHIMURIUM, Strain/Indicator: TA98, Metabolic Activation: RAT, LIVER, S-9, AROCLOR 1254 (10%), Method: STANDARD PLATE) was “active; positive”; the mutagenic call under setting [3] is “active; positive”; the mutagenic call under setting [2] is “inactive; negative”; the mutagenic call (Test System: AMES SALMONELLA TYPHIMURIUM, Strain/Indicator: TA100, Metabolic Activation: RAT, LIVER, S-9, AROCLOR 1254 (10%), Method: STANDARD PLATE) is “active; positive”; the mutagenic call under setting [4] was “active; positive”.
As for `O=C1CCC(N2C(=O)c3ccccc3C2=O)C(=O)N1` (centres undefined), the mutagenic call is, setting by setting: (Test System: AMES SALMONELLA TYPHIMURIUM, Strain/Indicator: TA97, Metabolic Activation: NONE, Method: STANDARD PLATE) “inactive; negative”; (Test System: AMES SALMONELLA TYPHIMURIUM, Strain/Indicator: TA97, Metabolic Activation: RAT, LIVER, S-9, AROCLOR 1254, Method: STANDARD PLATE) “inactive; negative”; under setting [1], “inactive; negative”; (Test System: AMES SALMONELLA TYPHIMURIUM, Strain/Indicator: TA98, Metabolic Activation: RAT, LIVER, S-9, AROCLOR 1254 (4, 10 OR 30%), Method: PREINCUBATION) “inactive; negative”; under setting [3], “inactive; negative”; under setting [2], “inactive; negative”. Further, the mutagenic call (Test System: AMES SALMONELLA TYPHIMURIUM, Strain/Indicator: TA100, Metabolic Activation: RAT, LIVER, S-9, AROCLOR 1254 (10%), Method: PREINCUBATION) was “inactive; negative”; the mutagenic call under setting [4] was “inactive; negative”; the mutagenic call under setting [5] was “inactive; negative”; the mutagenic call (Test System: AMES SALMONELLA TYPHIMURIUM, Strain/Indicator: TA1535, Metabolic Activation: RAT, LIVER, S-9, AROCLOR 1254, Method: STANDARD PLATE) was “inactive; negative”; the mutagenic call (Test System: AMES SALMONELLA TYPHIMURIUM, Strain/Indicator: TA1537, Metabolic Activation: NONE, Method: STANDARD PLATE) is “inactive; negative”; the mutagenic call (Test System: AMES SALMONELLA TYPHIMURIUM, Strain/Indicator: TA1537, Metabolic Activation: RAT, LIVER, S-9, AROCLOR 1254, Method: STANDARD PLATE) was “inactive; negative”. In addition, the mutagenic call (Test System: AMES SALMONELLA TYPHIMURIUM, Strain/Indicator: TA1538, Metabolic Activation: NONE, Method: STANDARD PLATE) is “inactive; negative”; the mutagenic call (Test System: AMES SALMONELLA TYPHIMURIUM, Strain/Indicator: TA1538, Metabolic Activation: RAT, LIVER, S-9, AROCLOR 1254, Method: STANDARD PLATE) is “inactive; negative”; the mutagenic call (Test System: MOUSE LYMPHOMA, Strain/Indicator: L5178Y (TK+/TK-), Metabolic Activation: NONE, Method: MICROWELL) was “inactive; negative”; the mutagenic call (Test System: MOUSE LYMPHOMA, Strain/Indicator: L5178Y (TK+/TK-), Metabolic Activation: RAT, LIVER, S-9, PHENOBARBITAL AND BETA-NAPHTHOFLAVONE, Method: MICROWELL) was “inactive; negative”.
